Data on 15 molecules can be found in ChEMBL document CHEMBL3046917, “Antimicrobial evaluation of 4-methylsulfanyl benzylidene/3-hydroxy benzylidene hydrazides and QSAR studies” (2012).

Common to all, as to format: functional
The test system of test [1] is Staphylococcus aureus. The test is described as follows: Bactericidal activity against Staphylococcus aureus MTCC 2901.
For test [2], the system named is Candida albicans. The test can be described thus: Ratio of MFC to MIC for Candida albicans MTCC 227.
Test [3] concerns Staphylococcus aureus. The test can be described thus: Bacteriostatic activity against Staphylococcus aureus MTCC 2901 after 24 hr by tube dilution method.
Test [4] concerns Aspergillus niger. The test can be described thus: Fungistatic activity against Aspergillus niger MTCC 8189 after 7 days by tube dilution method.
For test [5], the system named is Candida albicans. The test is described as follows: Fungicidal activity against Candida albicans MTCC 227.
In test [6] the test system is Escherichia coli. The test can be described thus: Bactericidal activity against Escherichia coli MTCC 1652.
The subject of test [7] is Escherichia coli. The test is described as follows: Ratio of MBC to MIC for Escherichia coli MTCC 1652.
The subject of test [8] is Bacillus subtilis. The test can be described thus: Ratio of MBC to MIC for Bacillus subtilis MTCC 2063.
For test [9], the system named is Escherichia coli. The test is described as follows: Bacteriostatic activity against Escherichia coli MTCC 1652 after 24 hr by tube dilution method.
The test system of test [10] is Aspergillus niger. The test can be described thus: Ratio of MFC to MIC for Aspergillus niger MTCC 8189.
Test [11] deals with Staphylococcus aureus. The test is described as follows: Ratio of MBC to MIC for Staphylococcus aureus MTCC 2901.
Test [12] relates to Candida albicans. The test is described as follows: Fungistatic activity against Candida albicans MTCC 227 after 48 hr by tube dilution method.
For test [13], the system named is Aspergillus niger. The test can be described thus: Fungicidal activity against Aspergillus niger MTCC 8189.
Test [14] deals with Bacillus subtilis. The test can be described thus: Bactericidal activity against Bacillus subtilis MTCC 2063.
In test [15] the test system is Bacillus subtilis. The test can be described thus: Bacteriostatic activity against Bacillus subtilis MTCC 2063 after 24 hr by tube dilution method.

Values after ≈ are worked out from the molar mass of the structure shown.

Usually MBC stands for the smallest concentration meeting the test's criterion for killing. In general, MFC refers to the smallest concentration meeting the test's criterion for killing the fungus. Low values mean greater fungicidal potency, high ones weaker fungicidal potency. In the case of `CCCCCCCCCCCCCCCC(=O)N/N=C/c1ccc(SC)cc1`, the minimum bactericidal concentration (MBC) in the test on Staphylococcus aureus [1] was above 122 µM; in the test with Escherichia coli [6], 61 µM (≈ 24.7 µg/mL); against Bacillus subtilis [14], 61 µM (≈ 24.7 µg/mL). Further, the Ratio with Candida albicans [2], in the test on Escherichia coli [7], in the test with Bacillus subtilis [8], in the test on Aspergillus niger [10] and with Staphylococcus aureus [11] was 3 each time. The “-logMIC” value with Staphylococcus aureus [3] came to 1.21; in the test on Aspergillus niger [4], 0.61; in the test on Escherichia coli [9], 1.81; with Candida albicans [12] it was 0.61; in the test with Bacillus subtilis [15], 2.11. Also, the MFC against Candida albicans [5] and in the test with Aspergillus niger [13] was above 122 µM each time.
`CCCCCCCCCCCCCCCCCC(=O)N/N=C/c1cccc(O)c1`: the minimal bactericidal concentration (MBC) against Staphylococcus aureus [1] is above 124 µM; with Escherichia coli [6] it was above 124 µM; with Bacillus subtilis [14], 124 µM (≈ 49.9 µg/mL). Besides, the Ratio with Candida albicans [2], in the test with Escherichia coli [7], in the test with Bacillus subtilis [8], in the test on Aspergillus niger [10] and with Staphylococcus aureus [11] was 3 in each case. The “-logMIC” value in the test on Staphylococcus aureus [3] was 1.1; with Aspergillus niger [4], 1.51; with Escherichia coli [9] it was 1.3; in the test on Candida albicans [12], 0.6; in the test on Bacillus subtilis [15], 1.51. For the same molecule, the minimum fungicidal concentration (MFC) in the test on Candida albicans [5] and against Aspergillus niger [13] was above 124 µM throughout.
For `CCCCCCCCCCCCCCCC(=O)N/N=C/c1cccc(O)c1`, the minimal bactericidal concentration (MBC) is above 133 µM in the test on Staphylococcus aureus [1], above 133 µM against Escherichia coli [6] and 133 µM (≈ 49.8 µg/mL) against Bacillus subtilis [14]. Besides, the Ratio in the test on Candida albicans [2], with Escherichia coli [7], in the test with Bacillus subtilis [8], in the test on Aspergillus niger [10] and in the test on Staphylococcus aureus [11] was 3 throughout. The “-logMIC” value in the test on Staphylococcus aureus [3] is on record as 0.99; in the test with Aspergillus niger [4], 1.2; in the test on Escherichia coli [9], 1.13; in the test on Candida albicans [12], 0.57; in the test on Bacillus subtilis [15], 1.78. Also, the MFC in the test with Candida albicans [5] and against Aspergillus niger [13] was above 133 µM in each case.
In the case of `CCCCCCCCCCCC(=O)N/N=C/c1ccc(SC)cc1`, the MBC with Staphylococcus aureus [1], against Escherichia coli [6] and with Bacillus subtilis [14] was above 142 µM each time. In addition, the Ratio in the test on Candida albicans [2], with Escherichia coli [7], in the test with Bacillus subtilis [8], in the test with Aspergillus niger [10] and in the test on Staphylococcus aureus [11] was 3 throughout. Further, the “-logMIC” value in the test on Staphylococcus aureus [3] is listed as 1.3; in the test with Aspergillus niger [4], 1.25; in the test on Escherichia coli [9] it was 1.3; with Candida albicans [12] it was 1.66; in the test with Bacillus subtilis [15], 1.45. Moreover, the results for the MFC against Candida albicans [5] and against Aspergillus niger [13] were above 142 µM and 71 µM (≈ 24.7 µg/mL), respectively.
With `CSc1ccc(/C=N/NC(=O)c2cccc(C)c2)cc1`, the MBC was above 176 µM with Staphylococcus aureus [1], 176 µM (≈ 50.1 µg/mL) in the test with Escherichia coli [6] and above 176 µM against Bacillus subtilis [14]. The Ratio with Candida albicans [2], with Escherichia coli [7], with Bacillus subtilis [8], with Aspergillus niger [10] and with Staphylococcus aureus [11] was 3 throughout. In addition, the “-logMIC” value came to 1.55 with Staphylococcus aureus [3]; 1.7 in the test with Aspergillus niger [4]; 1.66 in the test on Escherichia coli [9]; 1.67 with Candida albicans [12]; 1.06 in the test with Bacillus subtilis [15]. Also, the figures for the minimum fungicidal concentration (MFC) against Candida albicans [5] and against Aspergillus niger [13] were 176 µM (≈ 50.1 µg/mL) and 88 µM (≈ 25 µg/mL), respectively.
`CSc1ccc(/C=N/NC(=O)c2cc([N+](=O)[O-])cc([N+](=O)[O-])c2)cc1`: the MBC against Staphylococcus aureus [1] was 69 µM (≈ 24.9 µg/mL); in the test with Escherichia coli [6], 8 µM (≈ 2.88 µg/mL); in the test on Bacillus subtilis [14], 69 µM (≈ 24.9 µg/mL). Further, the Ratio with Candida albicans [2], in the test with Escherichia coli [7], in the test on Bacillus subtilis [8], with Aspergillus niger [10] and in the test on Staphylococcus aureus [11] was 3 throughout. Also, the “-logMIC” value with Staphylococcus aureus [3] came out at 1.46; with Aspergillus niger [4], 2.06; in the test with Escherichia coli [9] it was 2.06; in the test on Candida albicans [12], 0.86; in the test on Bacillus subtilis [15], 2.06. Further, the MFC against Candida albicans [5] is above 138 µM; in the test on Aspergillus niger [13] it was 69 µM (≈ 24.9 µg/mL).
Take `CCCCCCCCCCCCCCCCCC(=O)N/N=C/c1ccc(SC)cc1`: the MBC in the test on Staphylococcus aureus [1] was above 115 µM; in the test on Escherichia coli [6], 28 µM (≈ 12.1 µg/mL); against Bacillus subtilis [14], above 115 µM. Moreover, the Ratio in the test on Candida albicans [2], in the test with Escherichia coli [7], with Bacillus subtilis [8], with Aspergillus niger [10] and with Staphylococcus aureus [11] was 3 in each case. The “-logMIC” value worked out at 0.94 with Staphylococcus aureus [3]; 0.7 with Aspergillus niger [4]; 1.65 in the test on Escherichia coli [9]; 0.7 in the test on Candida albicans [12]; 0.64 in the test with Bacillus subtilis [15]. Also, the values for the minimum fungicidal concentration (MFC) with Candida albicans [5] and against Aspergillus niger [13] were above 115 µM and 115 µM (≈ 49.8 µg/mL), respectively.
On to `COc1ccc(C(=O)N/N=C/c2cccc(O)c2)cc1OC`, for which the minimum bactericidal concentration (MBC) against Staphylococcus aureus [1] is 83 µM (≈ 24.9 µg/mL); in the test with Escherichia coli [6], above 166 µM; with Bacillus subtilis [14], above 166 µM. For the same molecule, the Ratio in the test with Candida albicans [2], with Escherichia coli [7], in the test on Bacillus subtilis [8], in the test on Aspergillus niger [10] and with Staphylococcus aureus [11] was 3 throughout. Besides, the “-logMIC” value is given as 1.98 with Staphylococcus aureus [3]; 1.98 in the test with Aspergillus niger [4]; 1.38 with Escherichia coli [9]; 1.98 with Candida albicans [12]; 1.38 in the test on Bacillus subtilis [15]. For the same molecule, the minimum fungicidal concentration (MFC) in the test on Candida albicans [5] was determined as 83 µM (≈ 24.9 µg/mL); against Aspergillus niger [13] it was 41 µM (≈ 12.3 µg/mL).
`CSc1ccc(/C=N/NC(=O)/C=C/c2ccccc2)cc1`: the MBC was above 168 µM with Staphylococcus aureus [1], 168 µM (≈ 49.8 µg/mL) in the test with Escherichia coli [6] and above 168 µM in the test on Bacillus subtilis [14]. Further, the Ratio with Candida albicans [2], with Escherichia coli [7], with Bacillus subtilis [8], in the test with Aspergillus niger [10] and in the test on Staphylococcus aureus [11] was 3 each time. Besides, the “-logMIC” value with Staphylococcus aureus [3] is recorded as 1.68; in the test with Aspergillus niger [4] it was 1.37; in the test on Escherichia coli [9], 1.68; in the test on Candida albicans [12] it was 1.37; with Bacillus subtilis [15], 1.68. The minimum fungicidal concentration (MFC) against Candida albicans [5] is 84 µM (≈ 24.9 µg/mL); against Aspergillus niger [13], above 168 µM.
`COc1ccc(C(=O)N/N=C/c2ccc(SC)cc2)cc1OC`: the minimum bactericidal concentration (MBC) in the test on Staphylococcus aureus [1] was 37 µM (≈ 12.2 µg/mL); in the test on Escherichia coli [6], above 151 µM; in the test with Bacillus subtilis [14] it was above 151 µM. For the same molecule, the Ratio in the test on Candida albicans [2], in the test on Escherichia coli [7], in the test on Bacillus subtilis [8], in the test on Aspergillus niger [10] and with Staphylococcus aureus [11] was 3 throughout. For the same molecule, the “-logMIC” value in the test with Staphylococcus aureus [3] amounted to 1.72; with Aspergillus niger [4] it was 1.59; with Escherichia coli [9], 1.7; in the test with Candida albicans [12], 1.42; with Bacillus subtilis [15], 1.42. In addition, the minimal fungicidal concentration (MFC) in the test with Candida albicans [5] and with Aspergillus niger [13] was above 151 µM each time.
As to `CCCCCCCCCCCC(=O)N/N=C/c1cccc(O)c1`, the MBC is above 157 µM against Staphylococcus aureus [1], 157 µM (≈ 50 µg/mL) against Escherichia coli [6] and 157 µM (≈ 50 µg/mL) against Bacillus subtilis [14]. The Ratio in the test with Candida albicans [2], in the test with Escherichia coli [7], with Bacillus subtilis [8], with Aspergillus niger [10] and in the test with Staphylococcus aureus [11] was 3 each time. Besides, the “-logMIC” value in the test on Staphylococcus aureus [3] came out at 0.98; in the test on Aspergillus niger [4] it was 1.71; in the test on Escherichia coli [9], 0.98; with Candida albicans [12], 1.1; with Bacillus subtilis [15] it was 0.8. The minimum fungicidal concentration (MFC) against Candida albicans [5] is 157 µM (≈ 50 µg/mL); against Aspergillus niger [13], 78 µM (≈ 24.8 µg/mL).
Turning to `CCCCCCCCCCCCCC(=O)N/N=C/c1ccc(SC)cc1`, the minimum bactericidal concentration (MBC) is above 132 µM in the test with Staphylococcus aureus [1], above 132 µM with Escherichia coli [6] and 33 µM (≈ 12.4 µg/mL) in the test on Bacillus subtilis [14]. Besides, the Ratio in the test on Candida albicans [2], with Escherichia coli [7], in the test with Bacillus subtilis [8], with Aspergillus niger [10] and in the test with Staphylococcus aureus [11] was 3 each time. Moreover, the “-logMIC” value with Staphylococcus aureus [3] was 0.58; with Aspergillus niger [4] it was 1.7; with Escherichia coli [9] it was 1.48; in the test on Candida albicans [12] it was 0.58; with Bacillus subtilis [15], 2.08. The MFC against Candida albicans [5] and against Aspergillus niger [13] was above 132 µM in each case.
For the molecule `O=C(/C=C/c1ccccc1)N/N=C/c1cccc(O)c1`, the MBC against Staphylococcus aureus [1], in the test with Escherichia coli [6] and with Bacillus subtilis [14] was 46 µM (≈ 12.2 µg/mL) throughout. The Ratio in the test on Candida albicans [2], with Escherichia coli [7], with Bacillus subtilis [8], with Aspergillus niger [10] and in the test with Staphylococcus aureus [11] was 3 throughout. The “-logMIC” value in the test with Staphylococcus aureus [3] is listed as 1.7; with Aspergillus niger [4], 1.93; in the test with Escherichia coli [9], 1.32; with Candida albicans [12], 1.93; with Bacillus subtilis [15], 1.93. Besides, the MFC in the test on Candida albicans [5] and in the test on Aspergillus niger [13] was 93 µM (≈ 24.8 µg/mL) throughout.
As for `OC(Cn1cncn1)(Cn1cncn1)c1ccc(F)cc1F` [FLUCONAZOLE], the “-logMIC” value in the test with Aspergillus niger [4] and in the test with Candida albicans [12] was 2.64 each time. Moreover, the MFC in the test with Candida albicans [5] and in the test with Aspergillus niger [13] was 40 µM (≈ 12.3 µg/mL) each time.
`O=C(O)c1cn(C2CC2)c2cc(N3CCNCC3)c(F)cc2c1=O` [CIPROFLOXACIN]: the MBC against Staphylococcus aureus [1], in the test on Escherichia coli [6] and in the test on Bacillus subtilis [14] was 19 µM (≈ 6.3 µg/mL) throughout. In addition, the “-logMIC” value with Staphylococcus aureus [3], in the test with Escherichia coli [9] and in the test on Bacillus subtilis [15] was 2.61 throughout.
